Data set [1] has as its target T1, 5-HT1A receptors (Homo sapiens, UniProt P08908).
T1 construct: Gibco Biocult; Laboratory, Paisley UK; host or cells: unspecified cells; membrane preparation
T1 sequence (P08908 1-422): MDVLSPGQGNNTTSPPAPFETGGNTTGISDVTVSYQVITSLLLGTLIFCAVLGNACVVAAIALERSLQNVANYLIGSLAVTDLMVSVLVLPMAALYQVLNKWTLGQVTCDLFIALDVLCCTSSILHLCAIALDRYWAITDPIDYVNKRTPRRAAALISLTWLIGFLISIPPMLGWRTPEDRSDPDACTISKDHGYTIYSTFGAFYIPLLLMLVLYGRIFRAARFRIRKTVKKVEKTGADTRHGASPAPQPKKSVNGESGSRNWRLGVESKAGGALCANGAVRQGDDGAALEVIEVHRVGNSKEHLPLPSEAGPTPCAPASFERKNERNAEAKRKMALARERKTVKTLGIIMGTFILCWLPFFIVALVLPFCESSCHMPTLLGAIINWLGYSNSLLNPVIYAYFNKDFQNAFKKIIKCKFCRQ
Description: Efficacy: stimulation of [35S]GTPγS binding in a cell membrane preparation. It is filed as biochemical. The method, then: Measurement of the Efficacy of the Compounds of the Invention
The cells (Gibco Biocult. Laboratory, Paisley UK) are collected in phosphate buffer (pH=7.4) and centrifuged at 48 000 g for 20 minutes. The centrifugation pellet is homogenized in Hepes (20 mmol, pH=7.4) containing EDTA (10 mmol) and recentrifuged at 48 000×g for 10 minutes. The centrifugation pellet is washed twice in Hepes (10 mmol, pH=7.4) containing EDTA (0.1 mmol). The pellet is stored at −80° C. in portions of 600 to 750 μg of protein. […] The incubation medium contains 0.4 ml of membrane preparation and 0.05 ml of test compound. After incubation for 30 minutes at 25° C., 0.05 ml of [^35S]GTPγS (500 picomol), ([^35S]GTPγS (1100 Ci/mmol), Amersham, Les Ulis France), is added and the mixture incubated for 30 minutes. The reactions are quenched by addition of 3 ml of ice-cold Hepes (20 mmol) containing 3 mmol of MgCl2 and rapid filtration through Whatman GF/B filters. The tubes are rinsed 3 times with 5 ml of Hepes buffer at 25° C. The radioactivity collected on the filter is analyzed by liquid scintillation by adding 4 ml of scintillant liquid (Emulsifier Safe, Packard). […] All the experiments are performed in triplicate.

The target in data set [2] is T2, 5-HT1A receptors (Rattus norvegicus, UniProt P19327).
T2 construct: For these experiments, rat cerebral cortices are used; from tissue; host or cells: rat cerebral cortex homogenate
T2 sequence (P19327 1-422): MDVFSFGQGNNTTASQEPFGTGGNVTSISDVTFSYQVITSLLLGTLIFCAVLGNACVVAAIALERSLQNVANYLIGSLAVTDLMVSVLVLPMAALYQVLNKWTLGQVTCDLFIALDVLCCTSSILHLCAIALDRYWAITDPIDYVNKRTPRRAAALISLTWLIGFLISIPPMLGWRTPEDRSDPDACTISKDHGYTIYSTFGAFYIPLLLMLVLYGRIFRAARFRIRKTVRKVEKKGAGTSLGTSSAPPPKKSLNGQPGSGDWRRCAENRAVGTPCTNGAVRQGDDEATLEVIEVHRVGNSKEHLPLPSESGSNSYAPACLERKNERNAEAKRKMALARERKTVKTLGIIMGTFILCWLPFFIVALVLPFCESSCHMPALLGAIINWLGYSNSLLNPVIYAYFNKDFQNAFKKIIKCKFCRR
In words: Affinity for the 5-HT1A receptors, displacement of [3H]8-OH-DPAT. It is filed as binding. As for the experimental part: Measurement of the affinity of the compounds in the invention for the 5-HT1A receptors
For these experiments, rat cerebral cortices are used. After thawing the brain in Tris-HCl buffer (50 mmol, pH=7.4) at 25° C., the cerebral cortex is removed and homogenized in 20 volumes of buffer maintained at 4° C. The homogenate is centrifuged at 39 000×g for 10 minutes, and the centrifugation pellet is suspended in the same volume of buffer and recentrifuged. After resuspending under the same conditions, the homogenate is incubated for 10 minutes at 37° C. and then recentrifuged. The final pellet is suspended in cold Tris-HCl reaction buffer (50 mmol) at 25° C. containing […] of pargyline, 4 mmol of CaCl2 and 0.10% of ascorbic acid. The final concentration of tissue in the incubation medium is 10 mg/tube.
The nonspecific binding is defined by using […] of serotonin. The reaction tubes are incubated at 23° C. for 30 minutes and their content is then rapidly filtered under vacuum through Whatman GF/B filters, and the tubes are rinsed with twice 5 ml of tris-HCl buffer at 25° C. The radio-activity collected on the filter is analyzed by liquid scintillation, by adding 4 ml of scintillant liquid (Emulsifier Safe, Packard, Warrenville, USA). All the experiments are performed in triplicate.

Data set [3] deals with T3, dopaminergic D2 receptors (Rattus norvegicus, UniProt P61169).
T3 construct: For these experiments, rat striatum is used; from tissue; host or cells: rat striatum homogenate
T3 sequence (P61169 whole entry): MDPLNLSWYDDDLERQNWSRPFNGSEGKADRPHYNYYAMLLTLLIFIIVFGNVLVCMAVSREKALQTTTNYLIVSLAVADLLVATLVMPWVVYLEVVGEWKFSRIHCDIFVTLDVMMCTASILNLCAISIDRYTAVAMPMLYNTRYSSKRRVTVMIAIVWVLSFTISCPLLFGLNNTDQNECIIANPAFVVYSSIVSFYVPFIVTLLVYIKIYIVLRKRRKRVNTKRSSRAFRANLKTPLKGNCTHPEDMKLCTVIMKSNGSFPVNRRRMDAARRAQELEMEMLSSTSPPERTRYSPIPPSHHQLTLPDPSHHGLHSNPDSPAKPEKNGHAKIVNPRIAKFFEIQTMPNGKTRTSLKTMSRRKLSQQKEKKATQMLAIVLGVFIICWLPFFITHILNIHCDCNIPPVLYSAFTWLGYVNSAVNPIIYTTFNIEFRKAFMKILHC
Description: Affinity for the D2 receptors, displacement of [3H]YM-09151-2. Particulars: rat striatum, [3H]YM-09151-2 displacement, mean of at least 3 experiments. Format: binding. As for the experimental part: Measurement of the affinity of the compounds of the invention for the D2 receptors
For these experiments, rat striatum is used. After thawing the brain in Tris-HCl buffer (50 mmol, pH=7.4) at 25° C., the striatum is removed and homogenized in 40 volumes of buffer maintained at 4° C. The homogenate is centrifuged at 20 000×g for 10 minutes, and the centrifugation pellet is suspended in the same volume of buffer and recentrifuged. The final pellet is suspended in cold Tris-HCl reaction buffer at 25° C. containing 120 mmol of NaCl and 5 mmol of KCl. The final concentration of tissue in the incubation medium is 2 mg/tube. […] The nonspecific binding is defined by using […] of (+)-butaclamol. The reaction tubes are incubated at 23° C. for 60 minutes and their content is then rapidly filtered through Whatman GF/B filters, and the tubes are rinsed twice with 5 ml of Tris-HCl buffer at 25° C. The radioactivity collected on the filter is analyzed by liquid scintillation, by adding 4 ml of scintillant liquid (Emulsifier Safe, Packard). All the experiments are performed in triplicate.

[4] abbreviates: [35S]GTPγS binding, maximum stimulation defined with serotonin (10 μmmol), read-out: % stimulation Maximum effect.

Counter-ions that a name gives are not always drawn. Like-named read-outs stand apart in the source and are kept apart here.

For the compound `Cc1ccc(CNCC2(F)CCN(C(=O)c3ccc(F)c(F)c3)CC2)nc1` (as salt: fumarate) [Compound 1-11, (3,4-difluorophenyl)-(4-fluoro-4-{[(5-methylpyridin-2-ylmethyl)amino]methyl}piperidin-1-yl)methanone], the melting point is 158 °C.
On the same count and under the same terms, with `Cc1ccc(CNCC2(F)CCN(C(=O)c3cccc(C(F)(F)F)c3)CC2)nc1` (as salt: hydrochloride) [Compound 1-14, (3-trifluoromethylphenyl)-(4-fluoro-4-{[(5-methylpyridin-2-ylmethyl)amino]methyl}piperidin-1-yl)methanone] the figure was 172 °C.
Regarding `Cc1ccc(CNCC2(Cl)CCN(C(=O)c3ccc(F)c(Cl)c3)CC2)nc1` (as salt: hydrochloride) [Compound 1-9, (3-chloro-4-fluorophenyl)-(4-chloro-4-{[(5-methylpyridin-2-ylmethyl)amino]-methyl}piperidin-1-yl)methanone], the melting point was 190 °C (dec.).
`O=C1CC2(CCCC2)CC(=O)N1CCCCN1CCN(c2ncccn2)CC1` [buspirone]: the Emax at 5-HT1A receptors [1] (setting [4]) was found to be 22%.
The compound `N#Cc1ccc(CNCC2(F)CCN(C(=O)c3ccc(F)c(Cl)c3)CC2)nc1` (as salt: fumarate) [Compound 1-2, (3-chloro-4-fluorophenyl)-(4-fluoro-4-{[(5-cyanopyridin-2-ylmethyl)amino]methyl}-piperidin-1-yl)methanone] yielded a melting point of 170 to 172 °C.
`Cc1cnc(CNCC2(F)CCN(C(=O)c3ccc(Cl)c(Cl)c3)CC2)nc1` (as salt: fumarate) [Compound 1-6, (3,4-dichlorophenyl)-(4-fluoro-4-{[(5-methylpyrimidin-2-ylmethyl)amino]-methyl}piperidin-1-yl)methanone] showed a melting point of 161 °C.
On to `Cc1ccc(CNCC2(F)CCN(C(=O)c3ccc(F)c(Cl)c3)CC2)nc1` [Compound I-66, (3-chloro-4-fluorophenyl)(4-fluoro-4-{[(5-methylpyridin-2-ylmethyl)-amino]methyl}piperidin-1-yl)methanone, reference compound], for which the Ki at 5-HT1A receptors [2] is 0.794 nM. For the same compound, on 5-HT1A receptors [1] (setting [4]), the Emax is 75%.
Regarding `CCCN(CCC)C1CCc2cccc(O)c2C1` (single isomer, unassigned; (+)) [(+)-8-OH-DPAT, reference compound], the “% stimulation Maximum effect” value on 5-HT1A receptors [1] ([35S]GTPγS binding, maximum stimulation defined with serotonin (10 μmmol)) came to 59%. In data set [3] (D2 pKi), this compound showed a Ki of 794 nM.
In turn, `O=C(c1ccc(F)c(Cl)c1)N1CCC(F)(CNCc2ccc(Cl)cn2)CC1` (as salt: fumarate) [Compound 1-3, (3-chloro-4-fluorophenyl)-(4-fluoro-4-{[(5-chloropyridin-2-ylmethyl)amino]methyl}piperidin-1-yl)methanone] displayed a melting point of 160 to 162 °C.
Take `Cc1ccc(CNCC2(F)CCN(C(=O)c3ccc(F)c(Cl)c3)CC2)nn1` (as salt: hydrochloride) [Compound 1-7, (3-chloro-4-fluorophenyl)-(4-fluoro-4-{[(6-methylpyridazin-3-ylmethyl)amino]-methyl}piperidin-1-yl)methanone]: the melting point is 205 °C (dec.).
Consider `Cc1ccc(CNCC2(F)CCN(C(=O)c3ccc(F)c(Cl)c3)CC2)nn1` [Compound 1-7, (3-chloro-4-fluorophenyl)-(4-fluoro-4-{[(6-methylpyridazin-3-ylmethyl)amino]-methyl}piperidin-1-yl)methanone], for which the “Selectivity 5-HT1A/D2” value on 5-HT1A receptors [2] (ratio of 5-HT1A to D2 affinity) is recorded as above 1000. For the same compound, the Ki is 5.01 nM at 5-HT1A receptors [2] (read-out: 5-HT1A pKi (converted)) and above 10000 nM in data set [3] (read-out: D2 pKi (converted)). The Emax at 5-HT1A receptors [1] (setting [4]) was 90%.
The compound `Cc1ccc(CNCC2(F)CCN(C(=O)c3ccc(F)c(C#N)c3)CC2)nc1` (as salt: fumarate) [Compound 1-13, (3-cyano-4-fluorophenyl)-(4-fluoro-4-{[(5-methylpyridin-2-ylmethyl)amino]methyl}piperidin-1-yl)methanone] registered a melting point of 175 °C.
On to `CCCN(CCC)C1CCc2cccc(O)c2C1` (centres unmarked) [Compound 8-OH-DPAT, 8-hydroxy-2-di-n-propylaminotetralin, reference compound], for which the Emax at 5-HT1A receptors [1] (read-out: % stimulation Maximum effect, [35S]GTPγS binding, maximum stimulation defined with serotonin (10 μmmol)) stood at 41%. The Ki in data set [3] (D2 pKi) is 631 nM.
For the compound `O=C(c1ccc(F)c(Cl)c1)N1CCC(F)(CNCc2ccc(O)cn2)CC1` (as salt: fumarate) [Compound 1-1, (3-chloro-4-fluorophenyl)(4-fluoro-4-{[(5-hydroxypyridin-2-ylmethyl)amino]methyl}-piperidin-1-yl)methanone], the melting point is 225 to 227 °C.
Still for that read-out and setting: as for `O=C(c1ccc(F)c(Cl)c1)N1CCC(F)(CNCc2ccc(CF)cn2)CC1` (as salt: fumarate) [Compound 1-4, (3-chloro-4-fluorophenyl)-(4-fluoro-4-{[(5-fluoromethylpyridin-2-ylmethyl)amino]-methyl}piperidin-1-yl)methanone], the figure is 157 to 159 °C; as for `Cc1ccc(CNCC2(F)CCN(C(=O)c3ccc(Cl)c(Cl)c3)CC2)nn1` (as salt: oxalate) [Compound 1-8, (3,4-dichlorophenyl)-(4-fluoro-4-{[(6-methylpyridazin-3-ylmethyl)amino]-methyl}piperidin-1-yl)methanone], 203 °C (dec.); as for `Cc1ccc(CNCC2(F)CCN(C(=O)c3ccc(Cl)c(F)c3)CC2)nc1` (as salt: fumarate) [Compound 1-12, (3-fluoro-4-chlorophenyl)-(4-fluoro-4-{[(5-methylpyridin-2-ylmethyl)amino]methyl}piperidin-1-yl)methanone], 150 °C.

Source of the values: patent US7547700B2, “Aryl-[4-halo-4(heteroarylmethylamino)-methyl]-piperidin-1-1yl]-methanone derivatives, methods for production and use thereof as medicaments” (PIERRE Fabre Medicament, priority 2002, dated 2009).
